ChEMBL document CHEMBL5523711, “Design, synthesis, and bioevaluation of SOS1 PROTACs derived from pyrido[2,3-d]pyrimidin-7-one-based SOS1 inhibitor” (Bioorg Med Chem Lett, 2024)

Legend:
Format in all cases: functional, cell-based
DLD-1 = assay: Antiproliferative activity against human DLD-1 cells harboring KRAS G13D mutant assessed as inhibition of cell growth
SW-620 = assay: Antiproliferative activity against human SW620 cells harboring KRAS G12V mutant assessed as inhibition of cell growth
A549 = assay: Antiproliferative activity against human A549 cells harboring KRAS G12S mutant assessed as inhibition of cell growth

Work on `COc1cc2nc(C)nc(N[C@H](C)c3cc(N)cc(C(F)(F)F)c3)c2cc1O[C@H]1CCOC1` yielded an IC50 (DLD-1) of 169 nM, an IC50 (SW-620) of 50.5 nM and an IC50 (A549) of 106 nM.
For `COc1ccc(C(=O)N2CCC3(CCC(CN4CCN(C(=O)[C@H]5CC[C@H](c6cc7c(N[C@H](C)c8cc(N)cc(C(F)(F)F)c8)ncnc7n(C)c6=O)CC5)CC4)CC3)CC2)cc1N1CCC(=O)NC1=O`, the IC50 (DLD-1) was 107 nM, the IC50 (SW-620) was 36.7 nM and the IC50 (A549) was 52.2 nM.
